The series can be described thus: Solubility in water. The format is physicochemical.

This is an account of results in US20020115884A1, “Process for producing a hydrogenation product of an aromatic carboxylic acid” (priority 2000, published 2002).

`O=C(O)c1cccc(C(=O)O)c1` [Isophthalic acid]: the Solubility in water by setting is: (Temperature 150° C.) 2.7 g/100 g-water; (Temperature 200° C.) 24.2 g/100 g-water.

Take `O=C(O)c1ccc(C(=O)O)cc1` [Terephthalic acid]: the Solubility in water by setting is: (Temperature 150° C.) 0.25 g/100 g-water; (Temperature 200° C.) 1.7 g/100 g-water.

Regarding `O=C(O)c1ccc2cc(C(=O)O)ccc2c1` [2,6-naphthalenedicarboxylic acid], the Solubility in water was 0.03 g/100 g-water (Temperature 150° C.) and 0.21 g/100 g-water (Temperature 200° C.).

Turning to `O=C(O)c1ccc(-c2ccc(C(=O)O)cc2)cc1` [4,4′-biphenyldicarboxylic acid], the Solubility in water is reported as 0.01 g/100 g-water (Temperature 150° C.) and 0.04 g/100 g-water (Temperature 200° C.).
